Data from patent publication USRE48253E1, “Methotrexate adjuvants to reduce toxicity and methods for using the same” (Tosk, Inc., priority 2008, dated 2020).

Assay: Mouse Study VI: plasma uridine and TK-112690 after TK-112690 treatment
Type: in vivo, CD-1 mouse
Conditions: 0, 15, 30, 60 and 120 mg/kg ip
Experimental: In this study, CD-1 female mice were injected ip with 120 mg/kg TK-112690 and plasma from the animals analyzed by HPLC using UV detection for TK-112690 and uridine. Concentrations of uridine and TK-112690 in plasma samples collected 0.08, 0.50, 1, 2, 4 or 12 hours post TK-112690 injection were determined by HPLC using UV detection. […] An increase in plasma uridine was noted almost immediately following administration of TK-112690. At 0.5 hour post TK-112690 dose, a 100 μg/mL plasma concentration TK-112690 is associated with a plasma uridine concentration of approximately 2 μg/mL of uridine (baseline uridine concentration approximately 0.5 μg/mL). […]
Plasma uridine concentration was determined by HPLC using UV detectionafter animals were treated with TK-112690 as follows. […] CD-1 female mice were injected ip with a range of TK-112690 doses (0, 15, 30, 60 and 120 mg/kg) and plasma from the animals analyzed for TK-112690 uridine concentrations expected to be elevated through UPase inhibition by TK-112690. Plasma uridine concentrations were determined from plasma samples collected 0.08, 0.50, 1, 2, 4 or 12 hours post TK-112690 injection. […]
The micromolar concentration of plasma uridine was determined by linear equation (y=mx+b) generated from uridine and 5-FU calibration curve. The y value is calculated by taking ratio of peak heights (mm) of uridine and 5-FU. […]

Cc1cn2c(nc1=O)O[C@H]1[C@H](O)[C@@H](CO)O[C@H]12 [TK-112690, 2,2′-anhydro-5-methyluridine]
plasma concentrations of TK-112690 vs dose: increased with increasing doses
